Measured values taken from article PMC5218480 (PLoS ONE, 2017).

System: MV-4-11 cells
Assay: Gene expression microarray analysis (Affymetrix PrimeView) and GSEA
Assay type: cell-based, human
Set-up: RFU PODN (11730768_x_at) / Fold change /veh PODN (11730768_x_at) / RFU LINC00158 (11744669_a_at) / Fold change /veh LINC00158 (11744669_a_at) / RFU DUSP10 (11751237_a_at) / Fold change /veh DUSP10 (11751237_a_at) / RFU ID3 (11757404_x_at) / Fold change /veh ID3 (11757404_x_at) / RFU PLEKHG5 (11737974_s_at) / Fold change /veh PLEKHG5 (11737974_s_at) / RFU LRRC4B (11730491_at) / Fold change /veh LRRC4B (11730491_at) / RFU GIMAP4 (11747438_a_at) / Fold change /veh GIMAP4 (11747438_a_at) / RFU KRT8 (11758183_x_at) / Fold change /veh KRT8 (11758183_x_at) / RFU CNN1 (11734310_a_at) / Fold change /veh CNN1 (11734310_a_at) / RFU VPS37D (11726825_at) / Fold change /veh VPS37D (11726825_at) / RFU C10orf10 (11716522_x_at) / Fold change /veh C10orf10 (11716522_x_at) / RFU KIR2DL2 /// KIR2DL4 /// KIR2DL5A /// KIR2DL5B /// KIR2DS1 /// KIR2DS2 /// KIR2DS3 /// KIR2DS4 /// KIR3DL3 /// KIR3DL3 /// KIR3DS1 (11738374_at) / Fold change /veh KIR2DL2 /// KIR2DL4 /// KIR2DL5A /// KIR2DL5B /// KIR2DS1 /// KIR2DS2 /// KIR2DS3 /// KIR2DS4 /// KIR3DL3 /// KIR3DL3 /// KIR3DS1 (11738374_at) / RFU C1QL1 (11718748_at) / Fold change /veh C1QL1 (11718748_at) / RFU TMPRSS4 (11747572_a_at) / Fold change /veh TMPRSS4 (11747572_a_at) / RFU HAMP (11756126_x_at) / Fold change /veh HAMP (11756126_x_at) / RFU RNFT2 (11725882_a_at) / Fold change /veh RNFT2 (11725882_a_at) / RFU NR4A2 (11747474_a_at) / Fold change /veh NR4A2 (11747474_a_at) / RFU ABCC12 (11746883_a_at) / Fold change /veh ABCC12 (11746883_a_at) / RFU TMEM136 (11760407_x_at) / Fold change /veh TMEM136 (11760407_x_at) / RFU CLDN22 /// WWC2 (11732394_at) / Fold change /veh CLDN22 /// WWC2 (11732394_at) / RFU HLA-DPB1 (11760878_x_at) / Fold change /veh HLA-DPB1 (11760878_x_at) / RFU SPINT1 (11716480_a_at) / Fold change /veh SPINT1 (11716480_a_at) / RFU GAP43 (11754022_s_at) / Fold change /veh GAP43 (11754022_s_at) / RFU A4GNT (11735810_at) / Fold change /veh A4GNT (11735810_at) / RFU PRB3 (11715151_x_at) / Fold change /veh PRB3 (11715151_x_at) / RFU TUBB4B (11761932_at) / Fold change /veh TUBB4B (11761932_at) / RFU CAPN14 (11732068_a_at) / Fold change /veh CAPN14 (11732068_a_at) / RFU TMCC2 (11721928_a_at) / Fold change /veh TMCC2 (11721928_a_at) / RFU IRGQ (11745062_a_at) / Fold change /veh IRGQ (11745062_a_at) / RFU FAM174B (11720279_a_at) / Fold change /veh FAM174B (11720279_a_at) / RFU TMPRSS4 (11748680_a_at) / Fold change /veh TMPRSS4 (11748680_a_at) / RFU FAM212B (11763350_a_at) / Fold change /veh FAM212B (11763350_a_at) / RFU PLEKHG5 (11743358_a_at) / Fold change /veh PLEKHG5 (11743358_a_at) / RFU ZSCAN30 (11745921_a_at) / Fold change /veh ZSCAN30 (11745921_a_at) / RFU CMKLR1 (11741424_a_at) / Fold change /veh CMKLR1 (11741424_a_at) / RFU LOC101060620 /// MAPK8IP1 (11723275_at) / Fold change /veh LOC101060620 /// MAPK8IP1 (11723275_at) / RFU SPTSSB (11747773_x_at) / Fold change /veh SPTSSB (11747773_x_at) / RFU PRSS12 (11739890_at) / Fold change /veh PRSS12 (11739890_at) / RFU BIN1 (11741810_x_at) / Fold change /veh BIN1 (11741810_x_at) / RFU WNT11 (11732464_a_at) / Fold change /veh WNT11 (11732464_a_at) / RFU C10orf10 (11716521_a_at) / Fold change /veh C10orf10 (11716521_a_at) / RFU C5orf56 (11738089_at) / Fold change /veh C5orf56 (11738089_at) / RFU CYB561 (11721691_x_at) / Fold change /veh CYB561 (11721691_x_at) / RFU ANKRD19P (11752326_a_at) / Fold change /veh ANKRD19P (11752326_a_at) / RFU OR2T12 /// OR2T33 /// OR2T8 (11738714_s_at) / Fold change /veh OR2T12 /// OR2T33 /// OR2T8 (11738714_s_at) / RFU VCAN (11748164_a_at) / Fold change /veh VCAN (11748164_a_at) / RFU JSRP1 (11732532_at) / Fold change /veh JSRP1 (11732532_at) / RFU KRTAP10-11 (11738290_x_at) / Fold change /veh KRTAP10-11 (11738290_x_at) / RFU MYO3A (11730013_a_at) / Fold change /veh MYO3A (11730013_a_at) / RFU EBF3 (11725865_a_at) / Fold change /veh EBF3 (11725865_a_at) / RFU CAMK2N1 (11719241_x_at) / Fold change /veh CAMK2N1 (11719241_x_at) / RFU C5orf56 (11738088_a_at) / Fold change /veh C5orf56 (11738088_a_at) / RFU OLFML3 (11715873_a_at) / Fold change /veh OLFML3 (11715873_a_at) / RFU LOC100653217 /// NTM (11731650_a_at) / Fold change /veh LOC100653217 /// NTM (11731650_a_at) / RFU MAPK11 (11762145_a_at) / Fold change /veh MAPK11 (11762145_a_at) / RFU FIZ1 (11724087_x_at) / Fold change /veh FIZ1 (11724087_x_at) / RFU OASL (11726364_x_at) / Fold change /veh OASL (11726364_x_at) / RFU SOX15 (11748057_x_at) / Fold change /veh SOX15 (11748057_x_at) / RFU CD79A (11719716_a_at) / Fold change /veh CD79A (11719716_a_at) / RFU HIST1H1D (11736915_at) / Fold change /veh HIST1H1D (11736915_at) / RFU CASKIN2 (11723855_a_at) / Fold change /veh CASKIN2 (11723855_a_at) / RFU LOC730098 (11760151_x_at) / Fold change /veh LOC730098 (11760151_x_at) / RFU OR4N2 (11742367_at) / Fold change /veh OR4N2 (11742367_at) / RFU PRRT2 (11749266_a_at) / Fold change /veh PRRT2 (11749266_a_at) / RFU SNX32 (11753110_a_at) / Fold change /veh SNX32 (11753110_a_at) / RFU CDHR5 (11726645_a_at) / Fold change /veh CDHR5 (11726645_a_at) / RFU RCAN1 (11760418_a_at) / Fold change /veh RCAN1 (11760418_a_at) / RFU FAM167A (11723789_a_at) / Fold change /veh FAM167A (11723789_a_at) / RFU FAM26E (11764081_at) / Fold change /veh FAM26E (11764081_at) / RFU ISYNA1 (11749810_s_at) / Fold change /veh ISYNA1 (11749810_s_at) / RFU ACY1 (11761880_at) / Fold change /veh ACY1 (11761880_at) / RFU 11764098_at / Fold change /veh 11764098_at / RFU SAMD14 (11745864_x_at) / Fold change /veh SAMD14 (11745864_x_at) / RFU NPB (11741838_a_at) / Fold change /veh NPB (11741838_a_at) / RFU TMPRSS6 (11731388_a_at) / Fold change /veh TMPRSS6 (11731388_a_at) / RFU KRTAP10-2 (11738614_at) / Fold change /veh KRTAP10-2 (11738614_at) / RFU ARHGAP8 /// PRR5-ARHGAP8 (11727945_x_at) / Fold change /veh ARHGAP8 /// PRR5-ARHGAP8 (11727945_x_at) / RFU KRTAP5-7 /// NADSYN1 (11734609_at) / Fold change /veh KRTAP5-7 /// NADSYN1 (11734609_at) / RFU RASL12 (11751679_a_at) / Fold change /veh RASL12 (11751679_a_at) / RFU CDKN2B (11736163_a_at) / Fold change /veh CDKN2B (11736163_a_at) / RFU PRF1 (11729649_at) / Fold change /veh PRF1 (11729649_at) / RFU, ZNF638 /// ZNF638-IT1 / Fold change vs veh, ZNF638 /// ZNF638-IT1 / RFU, PANK3 / Fold change vs veh, PANK3 / RFU, SH3YL1 / Fold change vs veh, SH3YL1 / RFU, ZEB2 / Fold change vs veh, ZEB2 / RFU, NRIP1 / Fold change vs veh, NRIP1 / RFU, PTTG1IP / Fold change vs veh, PTTG1IP / RFU, CAPN2 / Fold change vs veh, CAPN2 / RFU, MED14 / Fold change vs veh, MED14 / RFU, SNORA58 / Fold change vs veh, SNORA58 / RFU, C1orf63 / Fold change vs veh, C1orf63 / RFU, LRRFIP1 / Fold change vs veh, LRRFIP1 / RFU, NDUFAF7 / Fold change vs veh, NDUFAF7 / RFU, SLC12A2 / Fold change vs veh, SLC12A2 / RFU, IBTK / Fold change vs veh, IBTK / RFU, ESF1 / Fold change vs veh, ESF1 / Fold change vs veh, TMEM50B / RFU, TAOK1 / Fold change vs veh, TAOK1 / RFU, ACBD3 / Fold change vs veh, ACBD3 / RFU, TMA16 / Fold change vs veh, TMA16 / RFU, RWDD3 / Fold change vs veh, RWDD3 / RFU, BCAT1 / Fold change vs veh, BCAT1 / RFU, EDEM3 / Fold change vs veh, EDEM3 / RFU, TMEM33 / Fold change vs veh, TMEM33 / RFU, WDR75 / Fold change vs veh, WDR75 / RFU, AHCTF1 / Fold change vs veh, AHCTF1 / RFU, TFRC / Fold change vs veh, TFRC / RFU, ZDHHC17 / Fold change vs veh, ZDHHC17 / RFU, NOM1 / Fold change vs veh, NOM1 / RFU, ARL8B / Fold change vs veh, ARL8B / RFU, ZBTB11 / Fold change vs veh, ZBTB11 / RFU, TAMM41 / Fold change vs veh, TAMM41 / RFU, KIAA1704 /// LOC100996395 / Fold change vs veh, KIAA1704 /// LOC100996395 / RFU, ING1 / Fold change vs veh, ING1 / RFU, TRMT61B / Fold change vs veh, TRMT61B / RFU, FUBP3 / Fold change vs veh, FUBP3 / RFU, TP53 / Fold change vs veh, TP53 / RFU, TNKS2 / Fold change vs veh, TNKS2 / RFU, ZFP14 / Fold change vs veh, ZFP14 / RFU, ACTR2 / Fold change vs veh, ACTR2 / RFU, PPP3R1 / Fold change vs veh, PPP3R1 / RFU, PIK3R1 / Fold change vs veh, PIK3R1 / RFU, HNRNPA1 / Fold change vs veh, HNRNPA1 / RFU, RNF170 / Fold change vs veh, RNF170 / RFU, ZNF28 / Fold change vs veh, ZNF28 / RFU, RNGTT / Fold change vs veh, RNGTT / RFU, OGT / Fold change vs veh, OGT / RFU, BRD1 / Fold change vs veh, BRD1 / RFU, MARS / Fold change vs veh, MARS / RFU, ZNF655 / Fold change vs veh, ZNF655 / RFU, FAHD1 / Fold change vs veh, FAHD1 / RFU, BDP1 / Fold change vs veh, BDP1 / RFU, LRRCC1 / Fold change vs veh, LRRCC1 / RFU, ARID1A / Fold change vs veh, ARID1A / RFU, ZNF146 / Fold change vs veh, ZNF146 / RFU, ZNF330 / Fold change vs veh, ZNF330 / RFU, GPN3 / Fold change vs veh, GPN3 / RFU, C9orf123 / Fold change vs veh, C9orf123 / RFU, N4BP2L2 / Fold change vs veh, N4BP2L2 / RFU, ARFIP1 / Fold change vs veh, ARFIP1 / RFU, FAM179B / Fold change vs veh, FAM179B / RFU, BCL10 / Fold change vs veh, BCL10 / RFU, UHRF1BP1L / Fold change vs veh, UHRF1BP1L / RFU, BET1 / Fold change vs veh, BET1 / RFU, CNOT2 / Fold change vs veh, CNOT2 / RFU, ZNF268 / Fold change vs veh, ZNF268 / Fold change vs veh, ZNF507 / RFU, DGCR2 / Fold change vs veh, DGCR2 / RFU, WDSUB1 / Fold change vs veh, WDSUB1 / Fold change vs veh, HSP90B1 /// MIR3652 / RFU, ADSS / Fold change vs veh, ADSS / RFU, GK / Fold change vs veh, GK / RFU, ZNF148 / Fold change vs veh, ZNF148 / RFU, TAF9 / Fold change vs veh, TAF9 / RFU, SLC1A5 / Fold change vs veh, SLC1A5 / RFU, SLMO2 / Fold change vs veh, SLMO2 / RFU, ABCC4 / Fold change vs veh, ABCC4 / RFU, LOC101060439 /// RAP1B / Fold change vs veh, LOC101060439 /// RAP1B / RFU, RFX7 / Fold change vs veh, RFX7 / RFU, GTPBP10 / Fold change vs veh, GTPBP10 / RFU, CNEP1R1 / Fold change vs veh, CNEP1R1 / RFU, BIVM-ERCC5 /// ERCC5 / Fold change vs veh, BIVM-ERCC5 /// ERCC5 / RFU, ILF3 / Fold change vs veh, ILF3 / RFU 11762660_at / Fold change /veh 11762660_at / RFU VCAN (11757783_s_at) / Fold change /veh VCAN (11757783_s_at) / RFU DDX43 (11728927_at) / Fold change /veh DDX43 (11728927_at) / RFU KRT8 (11758188_x_at) / Fold change /veh KRT8 (11758188_x_at) / RFU NKD1 (11759106_at) / Fold change /veh NKD1 (11759106_at) / RFU SRD5A1 (11742802_a_at) / Fold change /veh SRD5A1 (11742802_a_at) / RFU TPSAB1 /// TPSB2 (11721975_s_at) / Fold change /veh TPSAB1 /// TPSB2 (11721975_s_at) / RFU GSTM3 (11746129_a_at) / Fold change /veh GSTM3 (11746129_a_at) / RFU IL23R (11737362_x_at) / Fold change /veh IL23R (11737362_x_at) / RFU TMEM51 (11727254_a_at) / Fold change /veh TMEM51 (11727254_a_at) / RFU PIWIL2 (11732686_x_at) / Fold change /veh PIWIL2 (11732686_x_at) / RFU ORM1 (11744905_x_at) / Fold change /veh ORM1 (11744905_x_at) / RFU CCDC152 (11743942_at) / Fold change /veh CCDC152 (11743942_at) / RFU ECM1 (11717891_a_at) / Fold change /veh ECM1 (11717891_a_at) / RFU IL23R (11748794_a_at) / Fold change /veh IL23R (11748794_a_at) / RFU TNFAIP8L3 (11732012_x_at) / Fold change /veh TNFAIP8L3 (11732012_x_at) / RFU MBOAT4 (11741988_at) / Fold change /veh MBOAT4 (11741988_at) / RFU 11764193_at / Fold change /veh 11764193_at / RFU TMEM53 (11763286_at) / Fold change /veh TMEM53 (11763286_at) / RFU MAGEB2 (11727129_at) / Fold change /veh MAGEB2 (11727129_at) / RFU TMEM200A (11744735_a_at) / Fold change /veh TMEM200A (11744735_a_at) / RFU CCDC152 (11751479_a_at) / Fold change /veh CCDC152 (11751479_a_at) / RFU FAM211A (11726209_a_at) / Fold change /veh FAM211A (11726209_a_at) / RFU RGS16 (11746705_a_at) / Fold change /veh RGS16 (11746705_a_at) / RFU VCAN (11755009_s_at) / Fold change /veh VCAN (11755009_s_at) / RFU RHOB (11743442_s_at) / Fold change /veh RHOB (11743442_s_at) / RFU RGS16 (11720943_a_at) / Fold change /veh RGS16 (11720943_a_at) / RFU RGS16 (11720944_at) / Fold change /veh RGS16 (11720944_at) / RFU, VPS4B / Fold change vs veh, VPS4B / RFU, CREB1 / Fold change vs veh, CREB1 / RFU, DNAJC13 / Fold change vs veh, DNAJC13 / RFU, GNAQ / Fold change vs veh, GNAQ / RFU, CDK5R1 / Fold change vs veh, CDK5R1 / RFU, ZRANB3 / Fold change vs veh, ZRANB3 / RFU, CUL4A / Fold change vs veh, CUL4A / RFU, CCNY / Fold change vs veh, CCNY / RFU, UFL1 / Fold change vs veh, UFL1 / RFU, COG3 / Fold change vs veh, COG3 / RFU, DIAPH2 / Fold change vs veh, DIAPH2 / RFU, SKA2 / Fold change vs veh, SKA2 / RFU, AFF3 / Fold change vs veh, AFF3 / RFU, LMF1 / Fold change vs veh, LMF1 / RFU, IPO11 / Fold change vs veh, IPO11 / RFU, DFFB / Fold change vs veh, DFFB / RFU, FOXP1 / Fold change vs veh, FOXP1 / RFU, CARD8 / Fold change vs veh, CARD8 / RFU, STRN3 / Fold change vs veh, STRN3 / RFU, ADK / Fold change vs veh, ADK / RFU, RASSF2 / Fold change vs veh, RASSF2 / RFU, WIPF1 / Fold change vs veh, WIPF1 / RFU, LARP1B / Fold change vs veh, LARP1B / RFU, RASA1 / Fold change vs veh, RASA1 / RFU, RB1 / Fold change vs veh, RB1 / RFU, PPFIA1 / Fold change vs veh, PPFIA1 / RFU, MAT2A / Fold change vs veh, MAT2A / RFU, CCT5 / Fold change vs veh, CCT5 / RFU, WDR92 / Fold change vs veh, WDR92 / RFU, CUX1 / Fold change vs veh, CUX1 / RFU, TTC7A / Fold change vs veh, TTC7A / RFU, TMEM135 / Fold change vs veh, TMEM135 / RFU, DEPTOR / Fold change vs veh, DEPTOR / RFU, CPM / Fold change vs veh, CPM / RFU, DNAJB6 / Fold change vs veh, DNAJB6 / RFU, CACNA2D3 / Fold change vs veh, CACNA2D3 / RFU, DTX4 / Fold change vs veh, DTX4 / RFU, TFCP2 / Fold change vs veh, TFCP2 / RFU, GMCL1 /// GMCL1P1 / Fold change vs veh, GMCL1 /// GMCL1P1 / RFU, AEBP2 / Fold change vs veh, AEBP2 / RFU, SNHG1 /// SNORD22 /// SNORD25 /// SNORD26 /// SNORD27 /// SNORD28 /// SNORD29 /// SNORD31 / Fold change vs veh, SNHG1 /// SNORD22 /// SNORD25 /// SNORD26 /// SNORD27 /// SNORD28 /// SNORD29 /// SNORD31 / Fold change (Aza/veh), C12orf56 (ProbeSet 11735607_a_at) / Fold change (ACY-1035/veh), C12orf56 (ProbeSet 11735607_a_at) / Fold change (Aza/veh), FGFR1OP (ProbeSet 11751329_s_at) / Fold change (ACY-1035/veh), FGFR1OP (ProbeSet 11751329_s_at) / Fold change (Aza/veh), VPS36 (ProbeSet 11739960_a_at) / Fold change (ACY-1035/veh), VPS36 (ProbeSet 11739960_a_at) / RFU SYPL1 (11715823_x_at) / Fold change /veh SYPL1 (11715823_x_at) / RFU IGFBP7 (11715501_s_at) / Fold change /veh IGFBP7 (11715501_s_at) / RFU REEP3 (11722064_at) / Fold change /veh REEP3 (11722064_at) / RFU IGLL1 (11728026_x_at) / Fold change /veh IGLL1 (11728026_x_at): dose or concentration left out as unconfirmed
Conditions: MV-4-11 cells, 48 hours

Nc1ccc(-c2cccs2)cc1NC(=O)c1ccc2c(c1)cc(C1CC1)n2CCN1CCOCC1 [ACY-1035]
RFU TMPRSS6 (11731388_a_at): 73.78 RFU
